Here are results for 19 compounds from patent US20230416238A1, “N-[(1,3-BENZOXAZOL-2-YL)-HETEROCYCLE]AMIDE DERIVATIVES FOR THE TREATMENT AND PROPHYLAXIS OF HEPATITIS B VIRUS INFECTION” (Hoffmann-La Roche Inc., priority 2020, published 2023).

One may read the CC50 as the concentration that lowers cell viability or growth by half. A lower CC50 goes with harm at low concentration. As a reminder, the IC50 is the concentration at which inhibition is half-maximal.

Type in all cases: cell-based
Data set [1] is described as follows: Cytotoxicity in PHH natural infection assay (Cell Counting Kit-8). The note with it: HBV-infected primary human hepatocytes, CCK8. Here is the method:
(§1) Detailed procedures regarding primary human hepatocyte (PHH) HBV natural infection assay are described as below. One tube of frozen PHH (10 million cells) is thawed in 37° C. water bath and then transferred to 20 mL of PHH thawing medium (Sigma, InVitroGRO HT Medium, Cat. S03319) with gently mixing. The cells were then centrifuged at […] for 5 min, the supernatant was discarded and the tube was refilled with 25 mL of PHH plating medium (Sigma, InVitroGRO CP Medium, Cat. S03317). The tube was shaken very gently to re-suspend all cells, and then 50 μL of cells were transferred to each well 384-well collagen I coated plate with appropriate liquid handling equipment, e.g. Integra VIAFLO384 or Agilent Bravo. The cells were then cultured for 24 hours in a cell incubator. For HBV infection, after PHH attachment on the culture plate, the plating medium was removed and replenished with PHH culture medium containing HBV virus. The PHH culture medium was prepared with Dulbecco's Modified Eagle Medium (DMEM)/F12 (1:1 in volume ratio) containing 10% fetal bovine serum (Gibco, Cat. 10099141), 5 ng/mL human epidermal growth factor (Gibco, Cat. PHG0311L), 20 ng/mL dexamethasone (Sigma, Cat. D4902-100 mg), 250 ng/mL human recombinant insulin (Gibco, Cat. 41400045) and 100 U/mL penicillin. HBV virus at 200 genome equivalent (GE) per cell with 4% PEG8000 (Sigma, Cat. P1458) containing culture medium were added to the PHH culture medium for infection. The cells were then cultured for 24 hours in cell incubator. Then the cell culture supernatant was removed. The HBV-infected PHH were cultured with sandwich culture method with MEI culture medium containing 1% DMSO and 0.25 mg/mL matrix gel for 72 hours. The supernatant was then refreshed with PHH culture medium containing different concentrations of testing compounds for two times with 72-hour interval. At the end of treatment, the supernatant was collected for viral markers measurements, including HBsAg, HBeAg, HBV DNA and cytotoxicity. HBsAg and HBeAg were detected using alphalisa method using their specific antibodies. For HBV DNA detection, HBV DNA Quantitative Fluorescence Diagnostic Kit (Sansure Biotech Inc.) was used following the manufacture's protocol. Cytotoxicity was determined using Cell Counting Kit-8 (CCK8, Dojindo Molecular Technologies, Inc.).
(In general: Tetrazolium assays rely on reduction of a dye to a coloured formazan, in cell work by metabolically active cells.)

The test system of a further data set is HBsAg. Put plainly: PHH HBV natural infection assay, HBsAg (alphalisa). The note with it: Hepatitis B virus, Hepatocyte, read-out: HBsAg IC50. The protocol:
as §1
(§2) The compounds of the present invention were tested for their capacity to inhibit HBsAg and HBeAg as described herein.
(In general: In Alpha technology, singlet oxygen from a donor bead excites a nearby acceptor bead.)

The subject of the next data set is HBeAg. The experiment in a line: PHH HBV natural infection assay, HBeAg (alphalisa). The following applies: Hepatitis B virus, Hepatocyte, read-out: HBeAg IC50. The protocol: as §1, §2

As to `CC1(C(=O)NC2CCC3(CC2)CCN(c2nc4cc(Cl)ccc4o2)CC3)CC[S+]([O-])CC1` (stereo not drawn) [Example 98, N-[3-(5-chloro-1,3-benzoxazol-2-yl)-3-azaspiro[5.5]undecan-9-yl]-4-methyl-1-oxo-thiane-4-carboxamide], the CC50 at 144 h in data set [1] is more than 100 µM. The IC50 came to 4.23 µM in the data set on HBsAg and 2230 nM with HBeAg.
The matching figures for `CS(=O)(=O)c1ccc(C(=O)NC2CC3(C2)CN(c2nc4cc(Cl)ccc4o2)C3)o1` [Example 56, N-[2-(5-chloro-1,3-benzoxazol-2-yl)-2-azaspiro[3.3]heptan-6-yl]-5-methylsulfonyl-furan-2-carboxamide]: more than 100 µM, 1.22 µM and 996 nM.
On the same counts, the results for `O=C(NC1CCC2(CC1)CCN(c1nc3cc(Cl)ccc3o1)CC2)C1CCCS(=O)(=O)C1` (stereo not drawn) [Example 100, N-[3-(5-chloro-1,3-benzoxazol-2-yl)-3-azaspiro[5.5]undecan-9-yl]-1,1-dioxo-thiane-3-carboxamide] are more than 100 µM, 2.44 µM and 1720 nM.
On the same counts, the results for `O=C(NC1CCC2(CC1)CCN(c1nc3cc(Cl)ccc3o1)CC2)c1ccc(S(=O)(=O)NC(=O)C2CCC2)o1` [Example 111, N-[3-(5-chloro-1,3-benzoxazol-2-yl)-3-azaspiro[5.5]undecan-9-yl]-5-(cyclobutanecarbonylsulfamoyl)furan-2-carboxamide] are 85.7 µM, 5.45 µM and 3470 nM.
Compound `O=C(NC1CCC2(C1)CN(c1nc3cc(Cl)ccc3o1)C2)c1ccc(C(F)(F)F)o1` (stereo not drawn) [Example 69, N-[2-(5-chloro-1,3-benzoxazol-2-yl)-2-azaspiro[3.4]octan-6-yl]-5-(trifluoromethyl)furan-2-carboxamide] showed a 50% cytotoxic concentration (CC50) at 144 h in data set [1] of 83.2 µM. Besides, the IC50 with HBsAg is 4.41 µM; in the data set on HBeAg it was 4010 nM.
The matching figures for `O=C(NC1CC2(C1)CN(c1nc3cc(Cl)ccc3o1)C2)C1CC(F)(F)C1` [Example 31, N-[2-(5-chloro-1,3-benzoxazol-2-yl)-2-azaspiro[3.3]heptan-6-yl]-3,3-difluoro-cyclobutanecarboxamide]: more than 100 µM, 6.98 µM and 6220 nM.
With `CC(C)Oc1cc(C(=O)NC2CC3(C2)CN(c2nc4ccc(Cl)cc4o2)C3)ccn1` [Example 41, N-[2-(6-chloro-1,3-benzoxazol-2-yl)-2-azaspiro[3.3]heptan-6-yl]-2-isopropoxy-pyridine-4-carboxamide], the CC50 at 144 h in data set [1] was more than 10 µM. In addition, the results for the half-inhibitory concentration (IC50) in the data set with HBsAg and with HBeAg were 5.87 µM and 3810 nM, respectively.
On the same counts, the results for `O=C(NC1CC2(CCN(c3nc4cc(Cl)ccc4o3)CC2)C1)C1CCS(=O)(=O)C1` (stereo not drawn) [Example 76, N-[7-(5-chloro-1,3-benzoxazol-2-yl)-7-azaspiro[3.5]nonan-2-yl]-1,1-dioxo-thiolane-3-carboxamide] are more than 100 µM, 2.26 µM and 2270 nM.
On the same counts, the results for `CC(C)C[S+]([O-])c1ccc(C(=O)NC2CC3(C2)CN(c2nc4cc(Cl)ccc4o2)C3)o1` (stereo not drawn) [Example 62, N-[2-(5-chloro-1,3-benzoxazol-2-yl)-2-azaspiro[3.3]heptan-6-yl]-5-isobutylsulfinyl-furan-2-carboxamide] are 77.4 µM, 0.449 µM and 393 nM.
For `O=C(CCC(F)(F)F)NC1CC2(C1)CN(c1nc3cc(Cl)ccc3o1)C2` [Example 25, N-[2-(5-chloro-1,3-benzoxazol-2-yl)-2-azaspiro[3.3]heptan-6-yl]-4,4,4-trifluoro-butanamide], the half-maximal cytotoxic concentration (CC50) at 144 h in data set [1] is more than 100 µM. The IC50 with HBsAg was 9.8 µM; in the data set on HBeAg, 10300 nM.
On the same counts, the results for `CS(=O)(=O)CC(=O)NC1CCC2(CC1)CCN(c1nc3cc(Cl)ccc3o1)CC2` [Example 81, N-[3-(5-chloro-1,3-benzoxazol-2-yl)-3-azaspiro[5.5]undecan-9-yl]-2-methylsulfonyl-acetamide] are 67.3 µM, 3.49 µM and 2280 nM.
The matching figures for `O=C(NC1CC2(C1)CN(c1nc3cc(Cl)ccc3o1)C2)c1ccc(S(=O)(=O)C2CC2)o1` [Example 44, N-[2-(5-chloro-1,3-benzoxazol-2-yl)-2-azaspiro[3.3]heptan-6-yl]-5-cyclopropylsulfonyl-furan-2-carboxamide]: more than 100 µM, 2.27 µM and 1280 nM.
In the case of `CC(C)CS(=N)(=O)c1ccc(C(=O)NC2CC3(C2)CN(c2nc4cc(Cl)ccc4o2)C3)o1` (stereo not drawn) [Example 50, N-[2-(5-chloro-1,3-benzoxazol-2-yl)-2-azaspiro[3.3]heptan-6-yl]-5-(isobutylsulfonimidoyl)furan-2-carboxamide], it took 95.4 µM to reach half-maximal cytotoxicity in data set [1] (CC50 at 144 h). Also, the IC50 in the data set on HBsAg worked out at 1.66 µM; in the data set with HBeAg, 1490 nM.
On the same counts, the results for `O=C(NC1CCC2(CC1)CCN(c1nc3cc(Cl)ccc3o1)CC2)C1CCS(=O)(=O)CC1` [Example 96, N-[3-(5-chloro-1,3-benzoxazol-2-yl)-3-azaspiro[5.5]undecan-9-yl]-1,1-dioxo-thiane-4-carboxamide] are 93.6 µM, 0.957 µM and 727 nM.
The matching figures for `CC(C)C(=O)NC1CCC2(CC1)CCN(c1nc3cc(Cl)ccc3o1)CC2` [Example 79, N-[3-(5-chloro-1,3-benzoxazol-2-yl)-3-azaspiro[5.5]undecan-9-yl]-2-methyl-propanamide]: more than 100 µM, 8.84 µM and 11600 nM.
The compound `CS(=O)(=O)c1cccc(C(=O)NCC2CCN(c3nc4cc(Cl)ccc4o3)CC2)c1` [Example 4, N-[[1-(5-chloro-1,3-benzoxazol-2-yl)-4-piperidyl]methyl]-3-methylsulfonyl-benzamide] yielded a CC50 at 144 h in data set [1] of more than 10 µM. For the same compound, the figures for the IC50 in the data set on HBsAg and in the data set with HBeAg were 6.28 µM and 5740 nM, respectively.
The matching figures for `CCOc1cc(C(=O)NC2CC3(C2)CN(c2nc4cc(Cl)ccc4o2)C3)ccn1` [Example 49, N-[2-(5-chloro-1,3-benzoxazol-2-yl)-2-azaspiro[3.3]heptan-6-yl]-2-ethoxy-pyridine-4-carboxamide]: more than 100 µM, 3.1 µM and 1700 nM.
On the same counts, the results for `O=C(NC1CC2(C1)CN(c1nc3ccc(Cl)cc3o1)C2)c1ccnc(S(=O)(=O)C2CC2)c1` [Example 37, N-[2-(6-chloro-1,3-benzoxazol-2-yl)-2-azaspiro[3.3]heptan-6-yl]-2-cyclopropylsulfonyl-pyridine-4-carboxamide] are more than 10 µM, 7.75 µM and 6260 nM.
On the same counts, the results for `CCS(=O)(=O)c1cc(C(=O)NC2CC3(C2)CN(c2nc4cc(Cl)ccc4o2)C3)ccn1` [Example 53, N-[2-(5-chloro-1,3-benzoxazol-2-yl)-2-azaspiro[3.3]heptan-6-yl]-2-ethylsulfonyl-pyridine-4-carboxamide] are 93.2 µM, 1.41 µM and 785 nM.
